Structures are written as SMILES. In brackets after ≈: the same amount, converted by molar mass. Read-outs that look alike come from different tables or passages of the source.

Data set [1] in a line: NMR-pH titrations (acid dissociation constants, species distribution). In kind it is physicochemical. The settings on record: for pKa: aqueous solution, 95% (v/v) H2O and 5% (v/v) D2O; for mole fraction of the monoanionic form ([H2B]−): calculated from pKa values. The protocol: NMR-pH titrations were performed on a Varian VNMRS spectrometer (600 MHz for ^1H). Spectra were recorded at 25°C. Titrations were carried out in solutions containing 95% (v/v) H2O and 5% (v/v) D2O, with the addition of small amounts of 0.1 M HCl and NaOH. One molar NaOH and solid NaOH crystals were also used to achieve highly basic pH values. The ionic strength was kept at 0.15 M by the presence of NaCl. The concentration of baicalin and its methyl ester was 1.0 × 10^−3 M and ascorbic acid was used in large excess (5.0 × 10^−3 M) to prevent the oxidation of the studied catechol molecules in alkaline solutions. The sample volume was 600 μl. NMR spectra were referenced to the internal standard DSS (sodium 3-(trimethylsilyl)-1-propanesulfonate). The water signal was suppressed by presaturation. Spectra were processed with VNMRj 3.2a software. pH values were read on a Metrohm 2.780.0010 precision pH meter with a 6.0258.600 Unitrode glass Pt 1000 electrode (Metrohm AG, Herisau, Switzerland). The pH-potentiometric system was calibrated using pH 1.68, 4.01, 6.87, 9.18 aqueous buffer solutions. In highly basic solutions, pH was measured by NMR-pH indicator molecules as well to avoid the uncertainty of the glass electrode pH-meter readings in such solutions [24]. The concentration of these pH indicators was 1.0 mM. For the analysis of NMR titration curves of proton chemical shifts versus pH, the software Origin Pro 8 (OriginLab Corp., Northampton,MA, USA) was used.
In baicalin, there are 12 protons connected to carbon atoms, but in ^1H NMR spectra, only the singlets of H8 and H3 on ring A and the doublet of the aromatic H2’,6′ protons can be easily assigned, while the other aromatic protons occur in complex spectrum of multiplets. The protons of the monosaccharide unit overlap with each other and with the signals of the antioxidant ascorbic acid. The suppression of the large water signal also interferes with the observation of certain NMR signals. Thus, during the NMR-pH titration, we followed the above-mentioned three chemical shift signal sets.
Since protonation processes are instantaneous on the NMR chemical shift time scale, the observed chemical shift (δ^obsd) of a certain nucleus can be expressed as a weighted average of chemical shifts of the non-, mono-, di- and triprotonated forms of baicalin (B):2 δ^obsd=δB^3‐xB^3‐+δHB^2‐xHB^2‐+δH2B^−xH2B^−+δH3BxH3B where weighting factors are mole fractions that can be expressed in terms of stepwise protonation macroconstants and the actual hydrogen ion concentration. For example, xH2B^− is:3 xH2B^−=K1K2H^+^2/1+K1H^++K1K2H^+^2+K1K2K3H^+^3
Combining and rearranging Eqs. (2) and (3) yield Eq. (4) that can be directly fitted to the ^1H-NMR titration curve of each nucleus observed.4 δ^obsd=δB^3‐+δHB^2‐K1H^++δH2B^−K1K2H^+^2+δH3BK1K2K3H^+^3/1+K1H^++K1K2H^+^2+K1K2K3H^+^3
The logarithms of the obtained protonation constants correspond to the negative logarithms of dissociation constants, namely pKa1 = logK3, pKa2 = logK2 and pKa3 = logK1 [28].

Data set [2] can be described thus: Thermodynamic solubility by saturation shake-flask method. The settings on record: 37°C. In kind it is physicochemical. As for the experimental part:
A total of 0.94 g of 1 M HCl and 0.35 g of NaCl were diluted and dissolved to 1000 ml with distilled water and used as simulated gastric fluid (SGF) with pH 1.2. This medium served as solvent for the measurement of intrinsic solubility of baicalin.
A total of 250 ml of 0.2 M […] and 77 ml of 0.2 M NaOH were homogenized and diluted to 1000 ml with distilled water. This medium served as simulated intestinal fluid (SIF) with pH 6.8.
Blank buffer of FaSSGF pH 1.6 (1.99 g NaCl dissolved in 900 ml distilled water, adjusted the pH to 1.6 with 1 M HCl and filled to 1000 ml with distilled water) and phosphate buffer pH 6.5 (0.42 g NaOH pellets + 3.95 g NaH2PO4 monohydrate + 6.19 g NaCl dissolved in 900 ml distilled water, adjusted the pH to 6.5 with either 1 M NaOH or 1 M HCl and filled to 1000 ml with distilled water) were prepared as stock solutions.
FaSSGF was produced from blank buffer of FaSSGF pH 1.6, which was completed by 0.08 mM sodium taurocholate, 0.02 mM lecithin, 0.1 mg/ml pepsin and has osmolality of 120 ± 2.5 mOsmol/kg. To obtain the FaSSIF medium, 100 ml of blank phosphate buffer (pH 6.5) was made up by 3 mM sodium taurocholate and 0.75 mM lecithin. FaSSIF has an osmolality of 270 ± 10 mOsmol/kg.
The thermodynamic solubility of baicalin in various media was determined by saturation shake-flask method based on the method of Baka et al.. Briefly, 10 mg of baicalin was added to 5 ml of each solvent in sealed vials. All samples were stirred (approx. 500 rpm) and thermostated (IKA RT-5 power heatable magnetic stirrer, IKA Work Inc., USA) at 37 ± 0.5°C for 24 h allowing it to achieve thermodynamic equilibrium. After this period, 24 h of sedimentation cycle was adopted without stirring at 37 ± 0.5°C. To improve the efficacy of phase-separation, the saturated supernatant of samples was centrifuged at 14,000 rpm for 15 min (Herolab MicroGen 16, Herolab GmbH, Wiesloch, Germany). The aliquots (250 μl) taken for solubility experiments were suitably diluted with blank buffers and the absorbance was measured at λ = 316 nm by UV spectroscopy (Agilent 8453 UV-Visible Spectrophotometer, Agilent Technologies Ltd., USA). […] Ideally, λmax selected for the analysis of drug should not show any interference due to solvents and excipients present in the dissolution medium. […] In the solubility study, thus, λmax 316 nm was selected for the quantification of baicalin. […] All experiments were repeated three times and results were calculated from the linear calibration curve of baicalin in each media. Data are expressed as mean ± SD (μg/ml).

Details of data set [3]: method as in PMID 26579386. The note with it: cited from earlier work.
Details of data set [4]: method as in PMID 19722585. The note with it: reported as "1.27 (pH 7)"; cited from earlier work.
Details of data set [5]: method as in PMID 19722585. The settings on record: cited from earlier work.
Data set [6] in a line: Distribution coefficient measurements by the stir-flask method (octanol/water). The data set is classed as physicochemical. The protocol: The distribution coefficients were calculated from the absorbance of the molecules before and after partitioning at several octanol/water phase ratios. For the pH control, a pH 7.40 phosphate buffer and a standardized HCl solution were used, with an ionic strength of 0.15 M in both cases. The pH of the phosphate buffer was measured using a Metrohm 6.0204.100 combined pH glass electrode and a Metrohm 780 pH meter. The concentration change of baicalin was followed by UV-absorbance measurements. […] Then, the two phases were intensively stirred for 2 h in thermostated double-walled glass cells at constant temperature (25 ± 0.1°C). After separation of the equilibrated phases and centrifugation, the concentration of baicalin was determined by UV spectrophotometry (Perkin-Elmer Lambda 15) at several values at 279 nm (λmax). The distribution coefficients were calculated from the absorbance of baicalin before and after partitioning. […]
For baicalin, the pH-dependent distribution coefficient is the sum of four products:5 DpH=ΣxiPi=xB^3‐PB^3‐+xHB^2‐PHB^2‐+xH2B^−PH2B^−+xH3BPH3B where xi mole fractions are the pH-dependent quantities, while Pi parameters are the pH-independent ones. […]
The mole fraction data can be calculated similarly as shown in Eq. (3); thus, the partition coefficient of the anionic form can be obtained. […]

The nature of data set [7]: Stability in alkaline solution observed by NMR. The data set is classed as physicochemical. The text has this: Baicalin has three acidic functional moieties, one carboxyl and two phenolic hydroxyl groups. Proton transfer processes can be regarded either from the aspect of dissociation or association. Because of the acidic nature of baicalin, these processes will be characterized here in terms of acid dissociation constants (Ka). Carboxylic acids are typically orders of magnitude stronger than phenols. The determination of baicalin dissociation constants is hampered by its poor water solubility and sensitivity of oxidation of the catechol structure on its A ring. The acid/base properties of baicalin have been investigated earlier, resulting in pKa1, pKa2 and pKa3 values of 5.05, 7.6 and 10.1, respectively. […] We decided to undertake the characterization of baicalin by NMR-pH titrations, where the molecule was protected from oxidation by the antioxidant ascorbic acid up to pH ≈ 13.
NMR-pH titrations were performed on a Varian VNMRS spectrometer (600 MHz for ^1H). Spectra were recorded at 25°C. […] Spectra were processed with VNMRj 3.2a software. pH values were read on a Metrohm 2.780.0010 precision pH meter with a 6.0258.600 Unitrode glass Pt 1000 electrode (Metrohm AG, Herisau, Switzerland). […] In highly basic solutions, pH was measured by NMR-pH indicator molecules as well to avoid the uncertainty of the glass electrode pH-meter readings in such solutions [24]. […]

Details of data set [8]: method as in PMID 16107266. The settings on record: cited from earlier work.
The mark [9] stands for this setting: NMR-pH titration, 25°C, ionic strength 0.15 M, ascorbic acid as antioxidant.
Setting [10] is: UV-pH titration, called highly dubious by the authors.

In the case of `COC(=O)[C@H]1O[C@@H](Oc2cc3oc(-c4ccccc4)cc(=O)c3c(O)c2O)[C@H](O)[C@@H](O)[C@@H]1O` [Baicalin methyl ester], in data set [1] (setting [9]), the “pKa1 (acid dissociation constant)” value was 8.78 and the “pKa2 (acid dissociation constant)” value is reported as above 14.
As usually defined, the thermodynamic solubility is the concentration in solution at equilibrium with solid. As usually defined, the log P is the decadic logarithm of the partition coefficient of the neutral form, usually between octanol and water. Regarding `O=C(O)[C@H]1O[C@@H](Oc2cc3oc(-c4ccccc4)cc(=O)c3c(O)c2O)[C@H](O)[C@@H](O)[C@@H]1O` [Baicalin, 7-D-glucuronic acid-5,6-dihydroxyflavone], the solubility (thermodynamic) at 24 h in data set [2] (distilled water (Aqua dest.), read-out: Thermodynamic solubility) is 67 µg/mL (≈ 150 µM); in data set [2] (fassgf or other biorelevant, thermodynamic from solid, pH 1.6 FaSSGF, read-out: Thermodynamic solubility) it was 33.2 µg/mL (≈ 74.4 µM); in data set [2] (simulated gastric fluid (SGF), simulated gastric fluid, thermodynamic from solid, pH 1.2 SGF, read-out: Thermodynamic solubility (intrinsic solubility)) it was 11.6 µg/mL (≈ 26.1 µM); in data set [2] (simulated intestinal fluid (SIF), fassgf or other biorelevant, thermodynamic from solid, pH 6.8 SIF, read-out: Thermodynamic solubility) it was 10500 µg/mL (≈ 23500 µM); in data set [2] (thermodynamic from solid, pH 6.5 FaSSIF, read-out: Thermodynamic solubility), 8110 µg/mL (≈ 18200 µM). Also, the water solubility in data set [3] is 54 µg/mL (≈ 121 µM). Moreover, the “log P” value in data set [4] is reported as 1.27. For the same compound, the pKa2 in data set [5] (setting [10]) is recorded as 7.6. For the same compound, the pKa3 in data set [5] (setting [10]) is on record as 10.1. Moreover, the pKa1 in data set [5] (earlier investigation) is 5.05. Moreover, the “difference between the lipophilicity of the neutral and the anionic form” value in data set [6] worked out at 2.56 log unit. The logD at 2 h in data set [6] (standardized 0.15 M HCl solution, 25°C, SD in brackets, read-out: log D (characterizes the log P of the neutral form)) came out at 1.28. Further, the “stability in alkaline solution (decomposition)” value in data set [7] (NMR investigations, without antioxidant) was “rapidly decomposes above pH 9”. Moreover, the “stability in alkaline solution (oxidation)” value in data set [7] (in the presence of a large excess of ascorbic acid) is listed as “rapid oxidation of baicalin above pH 13”. In addition, in data set [8], the absolute bioavailability is reported as 2.2 ± 0.2%. Moreover, the pKa is 4.21 in data set [1] (NMR-pH titration, 25°C, ionic strength 0.15 M, ascorbic acid as antioxidant, read-out: pKa1 (acid dissociation constant)); 8.56 in data set [1] (NMR-pH titration, 25°C, ionic strength 0.15 M, ascorbic acid as antioxidant, read-out: pKa2 (acid dissociation constant)); above 14 in data set [1] (NMR-pH titration, 25°C, ionic strength 0.15 M, ascorbic acid as antioxidant, read-out: pKa3 (acid dissociation constant)). Further, the figures for the “mole fraction of the monoanionic form ([H2B]−)” value in data set [1] (pH 6.8 SIF) and in data set [1] (pH of blood (pH 7.40)) were 98.0% and 93.5%, respectively. Moreover, in data set [1] (pH 7.40, calculated from pKa values), the “relative concentration of the dianionic form (HB2−)” value is 6.5%.

The values above are taken from article PMC6746686, “Physicochemical Profiling of Baicalin Along with the Development and Characterization of Cyclodextrin Inclusion Complexes” (AAPS PharmSciTech, 2019).
